{
  "source": "paper PMC5773535",
  "about": "“Plasmodium dihydrofolate reductase is a second enzyme target for the antimalarial action of triclosan” (Scientific Reports, 2018)",
  "key": {"[1]": {"target": "T1, human dihydrofolate reductase (HsDHFR) (Homo sapiens, UniProt P00374)", "T1 construct": "gene DHFR", "T1 sequence (P00374 1-187)": "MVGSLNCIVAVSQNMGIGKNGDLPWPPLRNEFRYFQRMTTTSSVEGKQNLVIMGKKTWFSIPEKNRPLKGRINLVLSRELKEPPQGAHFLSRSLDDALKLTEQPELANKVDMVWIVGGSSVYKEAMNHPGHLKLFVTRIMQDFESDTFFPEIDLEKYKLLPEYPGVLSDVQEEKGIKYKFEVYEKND", "assay": "spectrophotometric DHFR assay at […] nm (NADPH/DHF consumption), purified enzyme", "assay_type": "biochemical"}, "[2]": {"target": "P. vivax dihydrofolate reductase (PvDHFR) (Plasmodium vivax, UniProt O02604)", "sequence (O02604 1-240)": "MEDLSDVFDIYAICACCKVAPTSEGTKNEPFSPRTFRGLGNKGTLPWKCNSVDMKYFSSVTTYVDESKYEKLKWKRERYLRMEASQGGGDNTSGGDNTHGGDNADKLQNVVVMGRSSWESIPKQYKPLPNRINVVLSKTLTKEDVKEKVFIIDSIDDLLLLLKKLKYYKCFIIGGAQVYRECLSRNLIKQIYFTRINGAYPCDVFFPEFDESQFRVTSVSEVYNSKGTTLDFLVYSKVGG", "assay": "spectrophotometric DHFR assay at […] nm (NADPH/DHF consumption), purified enzyme", "assay_type": "biochemical"}},
  "data": [
    {"smiles": "Oc1cc(Cl)ccc1Oc1ccc(Cl)cc1Cl", "note": "[triclosan]", "values": [
      {"measurement": "IC50", "setting": "[1]", "value": "17.2 ± 4.9", "unit": "µM"},
      {"measurement": "IC50", "setting": "[2]", "value": "0.775 ± 0.384", "unit": "µM"}
    ]}
  ]
}
